Counter-ions that a name gives are not always drawn. Like-named read-outs stand apart in the source and are kept apart here. Each block holds one molecule with its values, some of them ahead of it.
What was measured:
[1] = tested on: TNF-α production by LPS-stimulated splenic monocytes; experiment: Cytokine assay: LPS-stimulated TNF-α production by splenic monocytes; assay type: cell-based, mouse; settings: for inhibition of TNF-α production: CGS 21680 alone; for inhibition at 30 µM / inhibition at 100 µM: Mus musculus, Monocyte, 4 h
hA2AR = hA2AR (Homo sapiens, UniProt P29274); experiment: Cell-free membrane-based cAMP assay; assay type: biochemical; settings: HEK293-hA2AR cytosol-free membrane preparations, ADA 3 U/ml, 30 min, NBMPR 0–300 μM
human A2AR [2] = target: T1, human A2AR (Homo sapiens, UniProt P29274); experiment: Cell-based cAMP assay in CHO-hA2AR cells; settings: 10 min
[3] = tested on: CCL3 production by LPS-stimulated splenic monocytes; experiment: Cytokine assay: LPS-stimulated CCL3 production by splenic monocytes; assay type: cell-based, mouse; settings: A2AR intact and deficient monocytes, absence of ADA
[4] = tested on: CCL4 production by LPS-stimulated splenic monocytes; experiment: Cytokine assay: LPS-stimulated CCL4 production by splenic monocytes; assay type: cell-based, mouse; settings: absence of ADA, single agents
[5] = cited from earlier work
human A2AR [6] = target: T1, human A2AR; experiment: ERK1/2 phosphorylation assay in CHO-hA2AR cells; settings: inosine 1000 μM, AEA061 10 μM, 10 min

T1 sequence (P29274 whole entry): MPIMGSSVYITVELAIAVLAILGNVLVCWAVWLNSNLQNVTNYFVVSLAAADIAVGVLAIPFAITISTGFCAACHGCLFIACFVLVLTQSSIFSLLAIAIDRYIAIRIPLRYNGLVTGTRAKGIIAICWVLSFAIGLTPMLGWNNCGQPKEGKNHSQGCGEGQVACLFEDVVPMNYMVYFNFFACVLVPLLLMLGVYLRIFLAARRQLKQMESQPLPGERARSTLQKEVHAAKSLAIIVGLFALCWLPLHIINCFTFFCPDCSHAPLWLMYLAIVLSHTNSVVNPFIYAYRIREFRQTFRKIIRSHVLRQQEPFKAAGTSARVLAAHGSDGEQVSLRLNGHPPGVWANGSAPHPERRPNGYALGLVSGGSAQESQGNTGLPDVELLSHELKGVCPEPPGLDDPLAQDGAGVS
Sequence of hA2AR (P29274 whole entry): as above

Structure (SMILES): CCNC(=O)[C@H]1O[C@@H](n2cnc3c(N)nc(NCCc4ccc(CCC(=O)O)cc4)nc32)[C@H](O)[C@@H]1O [CGS 21680, 4-[2-[[6-Amino-9-(N-ethyl-β-D-ribofuranuronamidosyl)-9H-purin-2-yl]amino]ethyl] benzenepropanoic acid hydrochloride]
inhibition of TNF-α production ([1]; LPS-stimulated A2AR deficient monocytes, absence of ADA): 6.7%
inhibition of TNF-α production ([1]; LPS-stimulated A2AR-intact monocytes, absence of ADA): 39%

cAMP production (human A2AR [2]; without ADA): activated A2AR-mediated cAMP production
Structure (SMILES): O=[N+]([O-])c1ccc(CSc2ncnc3c2ncn3[C@@H]2O[C@H](CO)[C@@H](O)[C@H]2O)cc1 [NBMPR, 6-S-[(4-Nitrophenyl)methyl]-6-thioinosine]
cAMP production (hA2AR): dose-dependently increased cAMP production

cAMP production (human A2AR [2]; in the presence of ADA 3 U/ml): increased cAMP production
ERK1/2 phosphorylation (human A2AR [6]): increased ERK1/2 phosphorylation
Structure (SMILES): OC[C@H]1O[C@@H](n2cnc3c(O)ncnc32)[C@H](O)[C@@H]1O [inosine]
inhibition of TNF-α production as single agent ([1]; LPS-stimulated A2AR intact monocytes, absence of ADA): dose-dependently inhibited TNF-α production
inhibition at 30 µM ([1]; read-out: inhibition of LPS-stimulated TNF-α production, A2AR deficient monocytes, absence of ADA, 30 μM, 4 h): 5.2 ± 1.3%
inhibition at 100 µM ([1]; read-out: inhibition of LPS-stimulated TNF-α production, A2AR deficient monocytes, absence of ADA, 100 μM, 4 h): 16.3 ± 0.7%
inhibition at 30 µM ([1]; read-out: inhibition of LPS-stimulated TNF-α production, A2AR deficient monocytes, presence of ADA 3 U/ml, 30 μM, 4 h): 5.2 ± 2.2%
inhibition at 100 µM ([1]; read-out: inhibition of LPS-stimulated TNF-α production, A2AR deficient monocytes, presence of ADA 3 U/ml, 100 μM, 4 h): 12.4 ± 1.2%
inhibition at 30 µM ([1]; read-out: inhibition of LPS-stimulated TNF-α production, A2AR intact monocytes, absence of ADA, 30 μM, 4 h): 18.6 ± 3.7%
inhibition at 100 µM ([1]; read-out: inhibition of LPS-stimulated TNF-α production, A2AR intact monocytes, absence of ADA, 100 μM, 4 h): 30.1 ± 1.3%
inhibition at 30 µM ([1]; read-out: inhibition of LPS-stimulated TNF-α production, A2AR intact monocytes, presence of ADA 3 U/ml, 30 μM, 4 h): 13.2 ± 1.9%
inhibition at 100 µM ([1]; read-out: inhibition of LPS-stimulated TNF-α production, A2AR intact monocytes, presence of ADA 3 U/ml, 100 μM, 4 h): 16.8 ± 1.6%
inhibition of CCL3 production [3]: closely resembles that of TNF-α
inhibition of CCL4 production [4]: individually inhibited CCL4 production
half-life [5]: 15 h

Reference: article PMC5732040 (Cellular signalling, 2017)
